The values below are quoted from earlier work in paper PMC6848746 (Psychopharmacology, 2019).

Like-named read-outs stand apart in the source and are kept apart here.

One data set addresses 5-HT2B receptor. The following applies: read-out: 5-HT2B receptor Ki, vs. [3H]LSD, cited from earlier work.
Data set [1] has as its system rats. The conditions noted are these: MMAI discrimination; ref Marona-Lewicka and Nichols 1994, 1998; cited from earlier work.
Data set [2] relates to rats. The following applies: ref Bilsky et al. 1990, Marona-Lewicka et al. 1996; cited from earlier work.
The subject of data set [3] is hDAT. The following applies: cited from earlier work.
Data set [4] addresses hDAT. The conditions noted are these: read-out: [125I]RTI-55 binding to hDAT Ki; ref Eshleman et al. 2017; cited from earlier work.

As for `CC(N)Cc1ccc2c(c1)OCO2` (stereo not drawn) [MDA], the Ki at 5-HT2B receptor (ref Setola et al. 2003) is 100 nM.
Turning to `CC[C@@H](Cc1ccc2c(c1)OCO2)NC` [S-(+)-MBDB, S-(+)-N-methyl-1-(1,3-benzodioxol-5-yl)-2-butanamine, reference compound], the “substitution for MMAI” value in the data set on rats [1] is recorded as “fully substituted”.
For the compound `CNC(C)Cc1ccc2c(c1)OCO2` (stereo not drawn) [MDMA, 3,4-methylenedioxymethamphetamine, reference compound], the inhibition constant Ki at 5-HT2B receptor (ref Setola et al. 2003) was 500 nM. In addition, the “substitution for MMAI” value in the data set with rats [1] is “fully substituted”. Besides, in the data set with rats [2], the place conditioning effect entry is “conditioned place preference”.
`C[C@H](N)Cc1ccccc1` [(+)-amphetamine, reference compound]: the “substitution for MMAI” value with rats [1] is listed as “did not substitute”.
As for `COC(=O)[C@H]1[C@@H](OC(=O)c2ccccc2)C[C@@H]2CC[C@H]1N2C` [cocaine, reference compound], the “substitution for MMAI” value in the data set on rats [1] is reported as “did not substitute”.
As for `NC1Cc2ccc(I)cc2C1` (stereo not drawn) [5-IAI, 5-iodo-2-aminoindan], the Ki at 5-HT2B receptor (ref Iversen et al. (2013)) is 70 nM.
Consider `CCN[C@@H](C)Cc1cccc(C(F)(F)F)c1` [(+)-fenfluramine, reference compound], for which the “substitution for MMAI” value in the data set with rats [1] is recorded as “fully substituted”.
As for `CN[C@@H](C)Cc1ccccc1` [methamphetamine], in the data set with hDAT [3] (read-out: [3H]DA uptake inhibition IC50, ref Eshleman et al. 2017), the IC50 is 66.7 nM. Further, the “fold higher potency for [3H]DA uptake inhibition than [125I]RTI-55 displacement” value in the data set with hDAT [3] (ref Eshleman et al. 2017) is listed as “about 70 fold”. The Ki at hDAT [4] is 4580 nM.
